Assay results taken from patent publication US10485235B2, “Aryloxypyrimidinyl ethers as herbicides” (FMC Corporation, priority 2015, dated 2019).

How the values were obtained:
Format in all cases: in vivo
[1] = tested on: ryegrass, Italian (Italian ryegrass, Lolium multiflorum); experiment: Test A postemergence, Italian ryegrass; conditions: postemergence, 0 to 100 scale, 0 is no effect, 100 is complete control, approximately 10 days
Method in brief: (§1)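 Test chemicals in a solvent/surfactant mixture were applied as a preemergence directed soil spray on seeded loam–sand, or postemergence to plants 2–10 cm tall at the one- to two-leaf stage. After roughly 10 days in a greenhouse, injury was visually rated versus untreated controls on a 0 (no effect) to 100 (complete control) scale.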

[2] = tested on: galium (catchweed bedstraw, Galium aparine); experiment: Test A postemergence, galium; conditions: postemergence, 0 to 100 scale, 0 is no effect, 100 is complete control, approximately 10 days
Method in brief: as §1

[3] = tested on: ryegrass, Italian (Italian ryegrass, Lolium multiflorum); experiment: Test A preemergence, Italian ryegrass; conditions: Preemergence, 0 to 100 scale (0 no effect, 100 complete control)
Method in brief: as §1

kochia (Kochia scoparia) [4] = experiment: Test A postemergence, kochia; conditions: postemergence, 0 to 100 scale, 0 is no effect, 100 is complete control, approximately 10 days
Method in brief: as §1

[5] = tested on: blackgrass (Alopecurus myosuroides); experiment: Test A postemergence, blackgrass; conditions: postemergence, 0 to 100 scale, 0 is no effect, 100 is complete control, approximately 10 days
Method in brief: as §1

[6] = tested on: sedge, umbrella (small-flower umbrella sedge, Cyperus difformis); experiment: Test B flooded paddy test, umbrella sedge; conditions: 250 g ai/ha, Flood; visual rating after 13 to 15 days; scale 0 to 100, 0 is no effect, 100 is complete control
Method in brief: (§2)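 Visual ratings, 0 = no effect to 100 = complete control, versus controls after 13 to 15 days in greenhouse. Test compounds were added to paddy water kept 3 cm over the soil surface, on plants at 2-leaf stage.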

[7] = tested on: barnyardgrass (Echinochloa crus-galli); experiment: Test A postemergence, barnyardgrass; conditions: postemergence, 0 to 100 scale, 0 is no effect, 100 is complete control, approximately 10 days
Method in brief: as §1

[8] = tested on: barnyardgrass (Echinochloa crus-galli); experiment: Test B flooded paddy test, barnyardgrass; conditions: 250 g ai/ha, Flood; visual rating after 13 to 15 days; scale 0 to 100, 0 is no effect, 100 is complete control
Method in brief: as §2

[9] = tested on: foxtail, giant (giant foxtail, Setaria faberii); experiment: Test A postemergence, giant foxtail; conditions: postemergence, 0 to 100 scale, 0 is no effect, 100 is complete control, approximately 10 days
Method in brief: as §1

[10] = tested on: barnyardgrass (Echinochloa crus-galli); experiment: Test A preemergence, barnyardgrass; conditions: Preemergence, 0 to 100 scale (0 no effect, 100 complete control)
Method in brief: as §1

corn (Zea mays) = experiment: Test A postemergence, corn; conditions: postemergence, 0 to 100 scale, 0 is no effect, 100 is complete control, approximately 10 days
Method in brief: as §1

[11] = tested on: pigweed (Amaranthus retroflexus); experiment: Test A preemergence, pigweed; conditions: Preemergence, 0 to 100 scale (0 no effect, 100 complete control)
Method in brief: as §1

[12] = tested on: foxtail, giant (giant foxtail, Setaria faberii); experiment: Test A preemergence, giant foxtail; conditions: Preemergence, 0 to 100 scale (0 no effect, 100 complete control)
Method in brief: as §1

[13] = tested on: ducksalad (Heteranthera limosa); experiment: Test B flooded paddy test, ducksalad; conditions: 250 g ai/ha, Flood; visual rating after 13 to 15 days; scale 0 to 100, 0 is no effect, 100 is complete control
Method in brief: as §2

kochia (Kochia scoparia) [14] = experiment: Test A preemergence, kochia; conditions: Preemergence, 0 to 100 scale (0 no effect, 100 complete control)
Method in brief: as §1

[15] = tested on: ragweed (common ragweed, Ambrosia elatior); experiment: Test A preemergence, ragweed; conditions: Preemergence, 0 to 100 scale (0 no effect, 100 complete control)
Method in brief: as §1

[16] = tested on: wheat (Triticum aestivum); experiment: Test A postemergence, wheat; conditions: postemergence, 0 to 100 scale, 0 is no effect, 100 is complete control, approximately 10 days
Method in brief: as §1

[17] = tested on: pigweed (Amaranthus retroflexus); experiment: Test A postemergence, pigweed; conditions: postemergence, 0 to 100 scale, 0 is no effect, 100 is complete control, approximately 10 days
Method in brief: as §1

[18] = tested on: ragweed (common ragweed, Ambrosia elatior); experiment: Test A postemergence, ragweed; conditions: postemergence, 0 to 100 scale, 0 is no effect, 100 is complete control, approximately 10 days
Method in brief: as §1

rice (Oryza sativa) = experiment: Test B flooded paddy test, rice; conditions: 250 g ai/ha, Flood; visual rating after 13 to 15 days; scale 0 to 100, 0 is no effect, 100 is complete control
Method in brief: as §2

How did the “Plant response rating, Ryegrass, Italian” value ([1]; 125 g ai/ha) turn out when `FCCCOc1c(F)cccc1Oc1ncc(Cl)cn1` [Compound 26] was run?
Its value is 0.

And the “Plant response rating, Ryegrass, Italian” value ([1]; 500 g ai/ha)?
The value was 0.

And the “Plant response rating, Galium” value ([2]; 125 g ai/ha)?
Its value is 70.

And the “Plant response rating, Galium” value ([2]; 500 g ai/ha)?
Its value is 50.

And the “Plant response rating, Ryegrass, Italian” value ([3]; 125 g ai/ha)?
Its value is 0.

And the “Plant response rating, Ryegrass, Italian” value ([3]; 500 g ai/ha)?
Its value is 20.

What about the “Plant response rating, Kochia” value (kochia (Kochia scoparia) [4]; 125 g ai/ha) of the same compound?
Its value is 60.

What about the “Plant response rating, Kochia” value (kochia (Kochia scoparia) [4]; 500 g ai/ha) of the same compound?
Its value is 90.

And the “Plant response rating, Blackgrass” value ([5]; 125 g ai/ha)?
Its value is 0.

And the “Plant response rating, Blackgrass” value ([5]; 500 g ai/ha)?
Its value is 50.

And the “Plant response rating, Sedge, Umbrella” value [6]?
Its value is 0.

What about the “Plant response rating, Barnyardgrass” value ([7]; 125 g ai/ha) of the same compound?
The value was 10.

What about the “Plant response rating, Barnyardgrass” value ([7]; 500 g ai/ha) of the same compound?
Its value is 60.

And the “Plant response rating, Barnyardgrass” value [8]?
The value was 0.

And the “Plant response rating, Foxtail, Giant” value ([9]; 125 g ai/ha)?
The value was 10.

What about the “Plant response rating, Foxtail, Giant” value ([9]; 500 g ai/ha) of the same compound?
The value was 70.

What about the “Plant response rating, Barnyardgrass” value ([10]; 125 g ai/ha) of the same compound?
The value was 40.

And the “Plant response rating, Barnyardgrass” value ([10]; 500 g ai/ha)?
Its value is 100.

And the “Plant response rating, Corn” value (corn (Zea mays); 125 g ai/ha)?
The value was 0.

And the “Plant response rating, Corn” value (corn (Zea mays); 500 g ai/ha)?
Its value is 10.

And the “Plant response rating, Pigweed” value ([11]; 125 g ai/ha)?
Its value is 90.

And the “Plant response rating, Pigweed” value ([11]; 500 g ai/ha)?
The value was 100.

What about the “Plant response rating, Foxtail, Giant” value ([12]; 125 g ai/ha) of the same compound?
Its value is 50.

And the “Plant response rating, Foxtail, Giant” value ([12]; 500 g ai/ha)?
The value was 100.

And the “Plant response rating, Ducksalad” value [13]?
Its value is 30.

And the “Plant response rating, Kochia” value (kochia (Kochia scoparia) [14]; 125 g ai/ha)?
Its value is 10.

What about the “Plant response rating, Kochia” value (kochia (Kochia scoparia) [14]; 500 g ai/ha) of the same compound?
Its value is 100.

What about the “Plant response rating, Ragweed” value ([15]; 125 g ai/ha) of the same compound?
The value was 0.

And the “Plant response rating, Ragweed” value ([15]; 500 g ai/ha)?
Its value is 20.

What about the “Plant response rating, Wheat” value ([16]; 125 g ai/ha) of the same compound?
The value was 0.

What about the “Plant response rating, Wheat” value ([16]; 500 g ai/ha) of the same compound?
Its value is 0.

And the “Plant response rating, Pigweed” value ([17]; 125 g ai/ha)?
Its value is 60.

And the “Plant response rating, Pigweed” value ([17]; 500 g ai/ha)?
The value was 90.

And the “Plant response rating, Ragweed” value ([18]; 125 g ai/ha)?
Its value is 0.

What about the “Plant response rating, Ragweed” value ([18]; 500 g ai/ha) of the same compound?
The value was 20.

What about the “Plant response rating, Rice” value (rice (Oryza sativa)) of the same compound?
Its value is 0.

What does the source list for `O=C(CCC(F)(F)F)COc1c(Br)cccc1Oc1ncc(Cl)cn1` [Compound 56]?
Plant response rating, Ryegrass, Italian ([1]; 31 g ai/ha): 0; Plant response rating, Ryegrass, Italian ([1]; 125 g ai/ha): 10; Plant response rating, Galium ([2]; 31 g ai/ha): 10; Plant response rating, Galium ([2]; 125 g ai/ha): 40; Plant response rating, Ryegrass, Italian ([3]; 31 g ai/ha): 0; Plant response rating, Ryegrass, Italian ([3]; 125 g ai/ha): 0; Plant response rating, Kochia (kochia (Kochia scoparia) [4]; 31 g ai/ha): 0; Plant response rating, Kochia (kochia (Kochia scoparia) [4]; 125 g ai/ha): 60; Plant response rating, Blackgrass ([5]; 31 g ai/ha): 0; Plant response rating, Blackgrass ([5]; 125 g ai/ha): 20; Plant response rating, Sedge, Umbrella [6]: 75; Plant response rating, Barnyardgrass ([7]; 31 g ai/ha): 0; Plant response rating, Barnyardgrass ([7]; 125 g ai/ha): 20; Plant response rating, Barnyardgrass [8]: 0; Plant response rating, Foxtail, Giant ([9]; 31 g ai/ha): 0; Plant response rating, Foxtail, Giant ([9]; 125 g ai/ha): 30; Plant response rating, Barnyardgrass ([10]; 31 g ai/ha): 0; Plant response rating, Barnyardgrass ([10]; 125 g ai/ha): 90; Plant response rating, Corn (corn (Zea mays); 31 g ai/ha): 10; Plant response rating, Corn (corn (Zea mays); 125 g ai/ha): 30; Plant response rating, Pigweed ([11]; 31 g ai/ha): 0; Plant response rating, Pigweed ([11]; 125 g ai/ha): 80; Plant response rating, Foxtail, Giant ([12]; 31 g ai/ha): 0; Plant response rating, Foxtail, Giant ([12]; 125 g ai/ha): 90; Plant response rating, Ducksalad [13]: 85; Plant response rating, Kochia (kochia (Kochia scoparia) [14]; 31 g ai/ha): 0; Plant response rating, Kochia (kochia (Kochia scoparia) [14]; 125 g ai/ha): 50; Plant response rating, Ragweed ([15]; 31 g ai/ha): 0; Plant response rating, Ragweed ([15]; 125 g ai/ha): 0; Plant response rating, Wheat ([16]; 31 g ai/ha): 0; Plant response rating, Wheat ([16]; 125 g ai/ha): 20; Plant response rating, Pigweed ([17]; 31 g ai/ha): 40; Plant response rating, Pigweed ([17]; 125 g ai/ha): 100; Plant response rating, Ragweed ([18]; 31 g ai/ha): 0; Plant response rating, Ragweed ([18]; 125 g ai/ha): 0; Plant response rating, Rice (rice (Oryza sativa)): 30
